# Measurements reported in the supplement of paper PMC13380429.
# Tests used:
# Conditions in all cases: 72 h
# [1] = tested on: Caco-2; test: cell viability relative to DMSO; higher = less toxic
# [2] = tested on: Calu-3; test: as above
# [3] = tested on: HepG2; test: as above
# [4] = tested on: U2OS; test: as above
# [5] = tested on: Vero E6; test: as above
# [6] = tested on: Caco-2; test: relative viability EC50 (midpoint between 100% and the lowest measured viability); higher = less toxic
# [7] = tested on: Calu-3; test: as above
# [8] = tested on: U2OS; test: as above
# [9] = tested on: Vero E6; test: as above
# [10] = tested on: Caco-2; test: drug sensitivity score (DSS) for viability; higher = more toxic; extreme values may be limits of the assay
# [11] = tested on: Calu-3; test: as above
# [12] = tested on: HepG2; test: as above
# [13] = tested on: U2OS; test: as above
# [14] = tested on: Vero E6; test: as above
# [15] = tested on: HepG2; test: relative viability EC50 (midpoint between 100% and the lowest measured viability); higher = less toxic
SMILES,cell viability ([1]; 1 nM),cell viability ([1]; 10 nM),cell viability ([1]; 100 nM),cell viability ([1]; 1000 nM),cell viability ([1]; 10000 nM),cell viability ([2]; 1 nM),cell viability ([2]; 10 nM),cell viability ([2]; 100 nM),cell viability ([2]; 1000 nM),cell viability ([2]; 10000 nM),cell viability ([3]; 1 nM),cell viability ([3]; 10 nM),cell viability ([3]; 100 nM),cell viability ([3]; 1000 nM),cell viability ([3]; 10000 nM),cell viability ([4]; 1 nM),cell viability ([4]; 10 nM),cell viability ([4]; 100 nM),cell viability ([4]; 1000 nM),cell viability ([4]; 10000 nM),cell viability ([5]; 1 nM),cell viability ([5]; 10 nM),cell viability ([5]; 100 nM),cell viability ([5]; 1000 nM),cell viability ([5]; 10000 nM),relative viability EC50 [6],relative viability EC50 [7],relative viability EC50 [8],relative viability EC50 [9],drug sensitivity score [10],drug sensitivity score [11],drug sensitivity score [12],drug sensitivity score [13],drug sensitivity score [14],relative viability EC50 [15]
"CCCn1c(=O)c2nc(-c3ccccc3)[nH]c2n(CCC)c1=O [1,3-dipropyl-8-phenylxanthine]",91.1%,96.4%,90.3%,102%,81.9%,102%,102%,101%,102%,89.4%,108%,99.8%,103%,90.3%,69.5%,98.1%,95.4%,90.1%,97.1%,90.5%,96.6%,95.4%,94%,95.7%,94.9%,> 10 µM,> 10 µM,> 10 µM,> 10 µM,0.4,0,2.7,0,0,
CC(=O)OC/C=C(C)/C=C/C=C(C)/C=C/C1=C(C)CCCC1(C)C [retinyl-acetate],112%,99%,104%,95.9%,114%,93.7%,90.4%,112%,90.7%,93.3%,,,,,,,,,,,103%,103%,102%,98%,102%,> 10 µM,> 10 µM,,> 10 µM,0,0,,,0,
Cn1nnc(-c2ccc(-c3ccc(N4C[C@H](COP(=O)(O)O)OC4=O)cc3F)cn2)n1 [tedizolid-phosphate],108%,97.8%,94.2%,87.3%,87.9%,102%,103%,114%,86.1%,97.6%,106%,96.9%,91%,71.7%,53.1%,98.8%,98.5%,97.1%,93.8%,93.4%,98.5%,101%,97.9%,89.3%,89.8%,> 10 µM,> 10 µM,> 10 µM,> 10 µM,0.8,0.9,6.1,0,0.2,
COc1cc(C[C@@H](CO)[C@H](CO)Cc2ccc(O)c(OC)c2)ccc1O [secoisolariciresinol-(-)],94.7%,102%,87.6%,93%,94.7%,98.7%,102%,107%,91.9%,92.4%,,,,,,100%,99.1%,98.7%,104%,93.8%,113%,110%,98.6%,97.3%,99.3%,> 10 µM,> 10 µM,> 10 µM,> 10 µM,0,0,,0,0,
O=C(NO)C1(CS(=O)(=O)c2ccc(Oc3ccc(Cl)cc3)cc2)CCOCC1 [CTS-1027],104%,109%,105%,98.8%,74.3%,95%,101%,93.1%,104%,98.2%,97.7%,88.7%,104%,83.5%,96.3%,99.7%,105%,100%,106%,88.1%,101%,104%,99.4%,95%,94.5%,,> 10 µM,> 10 µM,> 10 µM,1.2,0,0,0,0,> 10 µM
CN(C)C(=O)c1ccc(S(=O)(=O)c2ccc(NC(=O)[C@@](C)(O)C(F)(F)F)c(Cl)c2)cc1 [AZD7545],103%,96.3%,96.7%,96.1%,79.6%,99.6%,107%,85.2%,94%,102%,94.3%,99.1%,95%,99.1%,61%,94.5%,104%,91.9%,103%,84.9%,101%,99%,99.7%,89%,90.9%,> 10 µM,> 10 µM,> 10 µM,> 10 µM,1.2,0,2,0.1,0.2,
CN(Cc1cnc2nc(N)nc(N)c2n1)c1ccc(C(=O)N[C@@H](CCC(=O)O)C(=O)O)cc1 [methotrexate],98.3%,99.6%,97.6%,67.1%,66%,104%,94.3%,93.9%,95.8%,96.5%,94.3%,103%,105%,21.8%,18.6%,103%,98.2%,98%,92.1%,97.2%,103%,99.1%,96.1%,14.7%,14.3%,,> 10 µM,> 10 µM,0.284 µM,6.1,0,14,0,16.1,0.379 µM
O=c1c2ccccc2[se]n1-c1ccccc1 [ebselen],88%,102%,107%,88.5%,100%,107%,93.5%,91.3%,87.6%,111%,,,,,,97.4%,98.7%,105%,97.4%,102%,96.4%,98.5%,99.4%,97.6%,104%,> 10 µM,> 10 µM,> 10 µM,> 10 µM,0,0,,0,0,
Oc1c(Cl)cc(Cl)c(Cl)c1Cc1c(O)c(Cl)cc(Cl)c1Cl [hexachlorophene],95%,97.1%,92.3%,91.6%,20.9%,107%,103%,107%,99.4%,94.2%,98%,98.3%,94%,94.4%,23.8%,97.8%,96.8%,92.9%,96.1%,70.9%,102%,102%,100%,99.9%,82%,2.29 µM,> 10 µM,,> 10 µM,5.8,0,5.1,1.9,0.5,2.57 µM
Cc1cc2cc3c(C)cc(=O)oc3c(C)c2o1 [trioxsalen],111%,99.6%,91.3%,92.4%,80.5%,105%,96.3%,106%,120%,108%,104%,88.8%,94.7%,86.1%,65.8%,103%,105%,101%,106%,99.6%,97.4%,96%,99.5%,97.5%,96.3%,> 10 µM,> 10 µM,> 10 µM,> 10 µM,1,0,2.9,0,0,
CCc1c(C(=O)C(N)=O)c2c(OCC(=O)O)cccc2n1Cc1ccccc1 [varespladib],106%,90.1%,94.4%,93%,106%,104%,99.2%,91.2%,110%,101%,93.3%,105%,96.2%,101%,97.7%,,,,,,104%,102%,107%,103%,99.5%,> 10 µM,> 10 µM,,> 10 µM,0,0,0,,0,> 10 µM
O=C1N[C@@H]2[C@@H](O)[C@@H](O)[C@H](O)[C@@H](CO)N2C1=O [kifunensine],98.5%,105%,91.8%,75.1%,67.5%,100%,106%,103%,90.7%,93%,95.6%,103%,99.4%,98.7%,82.6%,104%,102%,96.2%,97.4%,99%,107%,89.7%,96.2%,94.5%,84.2%,,> 10 µM,> 10 µM,> 10 µM,4.8,0,0.5,0,0.3,> 10 µM
